Results: article PMC5467912, “Asymmetric regulation of quorum-sensing receptors drives autoinducer-specific gene expression programs in Vibrio cholerae” (PLoS Genetics, 2017)
Where “and” joins values, the source holds several entries; their conditions need not be identical. Equal entries are not always repeated. Where two headings read alike, the source gives them in different places.

How the values were obtained:
CqsS [1] = biological target: T1, CqsS (Vibrio cholerae serotype O1, UniProt Q9KM66); assay: cell-based; settings: for Light production: strain WN1102
T1 construct: endogenous in cells; host or cells: V. cholerae WN1102 (ΔcqsA ΔluxQ/pBB1), derived from C6706str2

WT CqsS [2] = tested on: T2, WT CqsS; assay type: biochemical; settings: for % Total Phosphorylation: CqsS WT
T2 construct: made in house; host or cells: E. coli C43 (DE3), pET21b; used as inverted membrane vesicles

CqsS D618N = tested on: T3, CqsS D618N; assay: CqsS D618N autophosphorylation in inverted membrane vesicles, 32P (Fig 7A); assay type: biochemical, Vibrio cholerae
T3 construct: made in house; host or cells: E. coli C43 (DE3), pET21b; used as inverted membrane vesicles

WT CqsS [3] = tested on: T2, WT CqsS; assay type: cell-based; settings: Treatment 1uM
CqsS F162A = assay: CqsS-dependent repression of qrr4-gfp, CqsS F162A (Fig 7C); assay type: cell-based, Vibrio cholerae; settings: Treatment 1uM; CqsS mutant F162A
CqsS F166L = assay: CqsS-dependent repression of qrr4-gfp, CqsS F166L (Fig 7C); assay type: cell-based, Vibrio cholerae; settings: Treatment 1uM; CqsS mutant F166L
CqsS C170Y = assay: CqsS-dependent repression of qrr4-gfp, CqsS C170Y (Fig 7C); assay type: cell-based, Vibrio cholerae; settings: Treatment 1uM; CqsS mutant C170Y
[4] = tested on: QS-controlled luxCDABE operon; assay type: cell-based; settings: for RLU: Strain AH371
CqsS [5] = assay type: cell-based; settings: for CqsS Dimers / Relative dimers, Final experimental replicates / Relative dimers (CqsS, normalized to WT Ave): LuxS-CqsA-, AI-2 1 μM, CAI-1 5 μM; for CqsS Dimers / Relative dimers (CqsS, normalized to WT Ave): single replicates
hapA = assay type: cell-based
qrr4 = assay type: cell-based
[6] = tested on: QS-controlled luxCDABE operon; assay type: cell-based; settings: for RLU: PluxPQ-CqsS::3XFLAG LuxS-CqsA-

Structure (SMILES): O=C(Cc1ccc(-c2ccccc2)cc1)NC1CCCC1 [#10]
- Light production (CqsS [1]; Agonist 0.0119209 nM): 9369.4 RLU and 6986.9 RLU and 10942 RLU
- Light production (CqsS [1]; Agonist 0.0476837 nM): 9423.1 RLU and 8000 RLU and 9340.1 RLU
- Light production (CqsS [1]; Agonist 0.190735 nM): 12692 RLU and 13456 RLU and 11192 RLU
- Light production (CqsS [1]; Agonist 0.762939 nM): 11313 RLU and 14104 RLU and 15238 RLU
- Light production (CqsS [1]; Agonist 3.05176 nM): 22600 RLU and 24142 RLU and 30238 RLU
- Light production (CqsS [1]; Agonist 12.207 nM): 47534 RLU and 48144 RLU and 43294 RLU
- Light production (CqsS [1]; Agonist 48.8281 nM): 434632 RLU and 280649 RLU and 290930 RLU
- Light production (CqsS [1]; Agonist 195.312 nM): 18756970 RLU and 17581320 RLU and 17098310 RLU
- Light production (CqsS [1]; Agonist 781.25 nM): 54801790 RLU and 56977330 RLU and 58542960 RLU
- Light production (CqsS [1]; Agonist 3125 nM): 59104040 RLU and 65075830 RLU and 69081300 RLU
- Light production (CqsS [1]; Agonist 12500 nM): 60176380 RLU and 64830980 RLU and 65866960 RLU
- Light production (CqsS [1]; Agonist 50000 nM): 60204070 RLU and 58034020 RLU and 58318400 RLU
- EC50 (CqsS [1]; light production, reporter strain WN1102, 4 h at 30 °C): 62 nM
- % Total Phosphorylation (WT CqsS [2]; Agonist 0.1 uM): 86.7558%
- % Total Phosphorylation (WT CqsS [2]; Agonist 0.5 uM): 84.62% and 81.5912%
- % Total Phosphorylation (WT CqsS [2]; Agonist 1 uM): 70.72%
- % Total Phosphorylation (WT CqsS [2]; Agonist 5 uM): 11.17% and 6.892%
- % Total Phosphorylation (WT CqsS [2]; Agonist 10 uM): 7.64% and 4.71%
- % Total Phosphorylation (WT CqsS [2]; Agonist 20 uM): 4.64% and 6.727%
- % Total Phosphorylation (WT CqsS [2]; Agonist 30 uM): 7.41% and 4.674%
- % Total Phosphorylation (WT CqsS [2]; Agonist 100 uM): 7.94% and 6.455%
- % Total Phosphorylation (WT CqsS [2]; Agonist 200 uM): 9.2% and 11.8727%
- inhibition of WT CqsS autophosphorylation (WT CqsS [2]; saturating concentration (Fig 7B)): 90%
- % Total Phosphorylation (CqsS D618N; agonist 0.32 uM): 78.2169% and 129.787% and 72.1832% and 83.4166% and 68.7823%
- % Total Phosphorylation (CqsS D618N; agonist 0.64 uM): 67.6455% and 78.826% and 54.4942% and 82.803% and 54.4178% and 76.2235%
- % Total Phosphorylation (CqsS D618N; agonist 5.12 uM): 12.1256% and 15.8552% and 14.0183% and 14.8493% and 9.564% and 18.5457%
- % Total Phosphorylation (CqsS D618N; agonist 6.4 uM): 8.254% and 10.2835% and 8.308% and 5.772% and 5.105% and 9.008%
- % Total Phosphorylation (CqsS D618N; agonist 8 uM): 7.787% and 6.051% and 9.483% and 6.182% and 5.718% and 6.335%
- Qrr4-GFP/OD600 (WT CqsS [3]): 1697194 and 1657949 and 1642162
- Qrr4-GFP/OD600 (CqsS F162A): 18605320 and 18513840 and 18292630
- Qrr4-GFP/OD600 (CqsS F166L): 1551288 and 1596042 and 1572105
- Qrr4-GFP/OD600 (CqsS C170Y): 18211540 and 17807950 and 19517480

Structure (SMILES): C[C@]12OC[C@H](O)[C@@]1(O)O[B-](O)(O)O2 [AI-2, (2S, 4S)-2-methyl-2,3,3,4-tetrahydroxytetrahydrofuran borate]
- Light production ([4]; LuxS-CqsA- +AI-2 1 μM, OD600 0.0275): 5854546 RLU
- Light production ([4]; LuxS-CqsA- +AI-2 1 μM, OD600 0.0589): 5025467 RLU
- Light production ([4]; LuxS-CqsA- +AI-2 1 μM, OD600 0.2147): 1280857 RLU
- Light production ([4]; LuxS-CqsA- +AI-2 1 μM, OD600 0.4541): 1704470 RLU
- Light production ([4]; LuxS-CqsA- +AI-2 1 μM, OD600 1.201): 1856786 RLU
- Light production ([4]; LuxS-CqsA- +AI-2 1 μM, OD600 1.481): 34976370 RLU
- Light production ([4]; LuxS-CqsA- +AI-2 1 μM, OD600 1.867): 25388320 RLU
- Light production ([4]; LuxS-CqsA- +AI-2 1 μM, OD600 3.776): 12473520 RLU
- Light production ([4]; LuxS-CqsA-, AI-2 1 μM, CAI-1 5 μM, OD600 0.005): 108432 RLU
- RLU ([4]; agonist 0.0476837 nM): 2.35E+03 RLU and 4.30E+03 RLU and 4.28E+03 RLU
- RLU ([4]; agonist 0.762939 nM): 2.47E+03 RLU and 4.79E+03 RLU and 4.30E+03 RLU
- RLU ([4]; agonist 3.05176 nM): 2.44E+03 RLU and 2.42E+03 RLU and 2.17E+03 RLU
- RLU ([4]; agonist 12.207 nM): 2.38E+03 RLU and 4.73E+03 RLU and 4.30E+03 RLU
- RLU ([4]; agonist 48.8281 nM): 9.41E+03 RLU and 7.14E+03 RLU and 8.89E+03 RLU
- RLU ([4]; agonist 195.312 nM): 2.21E+04 RLU and 3.23E+04 RLU and 2.62E+04 RLU
- RLU ([4]; agonist 781.25 nM): 6.41E+04 RLU and 4.85E+04 RLU and 5.29E+04 RLU
- RLU ([4]; agonist 3125 nM): 6.25E+04 RLU and 6.51E+04 RLU and 5.68E+04 RLU
- RLU ([4]; agonist 12500 nM): 7.03E+04 RLU and 7.29E+04 RLU and 6.20E+04 RLU
- increase in light production ([4]; saturating autoinducer, HCD, vs untreated ΔcqsA ΔluxS): 100 fold
- Relative dimers, Average of 111816 reps (CqsS [5]; HCD): 0.8076 and 0.9392
- CqsS Dimers (CqsS [5]; HCD (OD600 = 2.0)): 120.316 and 41.5193 and 39.7812 and 190.837 and 226.59 and 73.4627 and 88.226 and 103.067
- Relative dimers, Final experimental replicates (CqsS [5]; HCD): 0.8076 and 0.9392 and 0.977 and 1.14 and 0.4129 and 0.3956
- Relative dimers (CqsS, normalized to WT Ave) (CqsS [5]; HCD): 0.7384 and 0.8768 and 0.8534 and 1.025 and 0.977 and 1.14 and 0.4129 and 0.3956
- Relative dimers, Average of 111816 reps (CqsS [5]; LCD): 1.105 and 0.8147
- CqsS Dimers (CqsS [5]; LCD (OD600 = 0.2)): 53.516 and 13.7214 and 12.1436 and 82.1482 and 72.8907 and 15.3978 and 28.2649 and 41.282
- Relative dimers, Final experimental replicates (CqsS [5]; LCD): 1.105 and 0.8147 and 1.157 and 1.5 and 0.8624 and 0.7633
- Relative dimers (CqsS, normalized to WT Ave) (CqsS [5]; LCD): 1.171 and 1.039 and 0.5746 and 1.055 and 1.157 and 1.5 and 0.8624 and 0.7633
- CqsS protein levels (CqsS [5]; ΔcqsA ΔluxS mutant, LCD and HCD): increased CqsS protein levels to nearly that present in the WT
- increase in hapA expression (hapA; LuxQ+ AI-2- strain (ΔcqsS ΔcqsR ΔvpsS ΔluxS)): 27 fold
- increase in hapA expression (hapA; ΔcqsA ΔluxS strain, HCD): 4 fold
- RLU relative to Average WT (qrr4; LuxS-CqsA- strain + autoinducer, Average WT 115335416.84): 29.34 and 29.68 and 31.98
- RLU, average per biological replicate (Totals) (qrr4; LuxS-CqsA- strain + autoinducer, Rep 1-3): 3.38E+09 RLU and 3.42E+09 RLU and 3.69E+09 RLU
- reduction of qrr4-luxCDABE expression (qrr4; saturating autoinducer, ΔcqsA ΔluxS mutant): 2 fold
- RLU ([6]; OD600 0.0532): 1.35E+07 RLU
- RLU ([6]; OD600 0.2928): 9.01E+07 RLU
- RLU ([6]; OD600 0.826): 1.12E+09 RLU
- RLU ([6]; OD600 1.094): 3.16E+09 RLU
- RLU ([6]; OD600 1.626): 2.09E+10 RLU
- RLU ([6]; OD600 2.281): 2.23E+10 RLU
- QS response when cqsS is under the luxPQ promoter ([6]; S9B Fig): caused premature induction of QS
